Reference: the supplement of paper PMC4862054
“And” between values parts separate entries of the source, which are not always exact repeats. Equal values may be shown once.

How the values were obtained:
Conditions in all cases: incubation time: 72 h
[1] = test system: MDA-MB-453; assay: drug sensitivity score (DSS), CellTox Green (DSS (AUC-based score)); higher = stronger drug effect (viability inhibition or cytotoxicity); extreme values may be limits of the assay
In short: (§1)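 Compound was dispensed into 384-well plates at 5 concentrations in 10-fold steps spanning a 10,000-fold range chosen for each compound, and 20 µl of breast cancer cell suspension was added before 72 h of incubation. CellTox Green fluorescence was read at 485/520 nm, followed by CellTiter-Glo luminescence after 10 min at room temperature. Values on each plate were normalised to 0.1 % DMSO and a positive kill control. The drug sensitivity score came from the area under the fitted dose-response curve.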

[2] = test system: MFM-223; assay: as above
In short: as §1

[3] = test system: CAL-85-1; assay: as above
In short: as §1

[4] = test system: CAL-51; assay: as above
In short: as §1

[5] = test system: MDA-MB-468; assay: as above
In short: as §1

[6] = test system: MDA-MB-436; assay: as above
In short: as §1

[7] = test system: MDA-MB-231; assay: as above
In short: as §1

[8] = test system: BT-549; assay: as above
In short: as §1

[9] = test system: CAL-148; assay: as above
In short: as §1

[10] = test system: HCC1143; assay: as above
In short: as §1

[11] = test system: DU-4475; assay: as above
In short: as §1

[12] = test system: Hs578T; assay: as above
In short: as §1

[13] = test system: HDQ-P1; assay: normalised viability (% of control), CellTiter-Blue; higher = more viable cells (about 100 = DMSO control)
In short: (§2)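 Breast cancer cell lines were treated for 72 h in 384-well format and measured by CellTiter-Blue fluorescence at 560/590 nm. Results were normalised per plate to vehicle (100) and a positive kill control (0). The entry is normalised viability at a single listed concentration of the series.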

[14] = test system: MDA-MB-453; assay: as above
In short: as §2

[15] = test system: MFM-223; assay: as above
In short: as §2

[16] = test system: CAL-85-1; assay: as above
In short: as §2

[17] = test system: SK-BR-3; assay: as above
In short: as §2

[18] = test system: BT-474; assay: as above
In short: as §2

[19] = test system: CAL-51; assay: as above
In short: as §2

[20] = test system: MDA-MB-468; assay: as above
In short: as §2

[21] = test system: MDA-MB-436; assay: as above
In short: as §2

[22] = test system: HCC1599; assay: as above
In short: as §2

[23] = test system: HCC1937; assay: as above
In short: as §2

[24] = test system: MDA-MB-231; assay: as above
In short: as §2

[25] = test system: BT-549; assay: as above
In short: as §2

[26] = test system: CAL-148; assay: as above
In short: as §2

[27] = test system: CAL-120; assay: as above
In short: as §2

[28] = test system: HCC1143; assay: as above
In short: as §2

[29] = test system: DU-4475; assay: as above
In short: as §2

[30] = test system: Hs578T; assay: as above
In short: as §2

SMILES	drug sensitivity score [1]	drug sensitivity score [2]	drug sensitivity score [3]	drug sensitivity score [4]	drug sensitivity score [5]	drug sensitivity score [6]	drug sensitivity score [7]	drug sensitivity score [8]	drug sensitivity score [9]	drug sensitivity score [10]	drug sensitivity score [11]	drug sensitivity score [12]	also measured
Nc1ncnc2c1c(COc1cccc(Cl)c1)nn2C1CCOCC1	0	0	0	0	0	0	0	0	0	0	0	0.27	–
COc1ccccc1S(=O)(=O)Nc1ccc2c(c1)CN(C)C(=O)N2 [PFI-1]	0	0	0.65	0	0	0	0	0	0	0	0	0	–
Cc1ccc(NC(=O)c2ccc(CN3CCN(C)CC3)cc2)cc1Nc1nccc(-c2cccnc2)n1 [Imatinib]	6.17	0	0	0	0	0	0	0	0	0	0	0.401	normalised viability ([13]; 3 nM): 132% and 110%; normalised viability ([14]; 3 nM): 129% and 110%; normalised viability ([15]; 10 nM): 95.9% and 112%; normalised viability ([16]; 3 nM): 91.5% and 91.4%; normalised viability ([17]; 10 nM): 97.5% and 99.9%; normalised viability ([18]; 10 nM): 108% and 112%; normalised viability ([19]; 3 nM): 111% and 108%; normalised viability ([20]; 10 nM): 95.9% and 102%; normalised viability ([21]; 10 nM): 117% and 111%; normalised viability ([22]; 10 nM): 105% and 120%; normalised viability ([23]; 10 nM): 89.5% and 92.4%; normalised viability ([24]; 10 nM): 81% and 98.2%; normalised viability ([25]; 10 nM): 87.7% and 100%; normalised viability ([26]; 3 nM): 80.4% and 92.6%; normalised viability ([27]; 10 nM): 81.6% and 90.2%; normalised viability ([28]; 10 nM): 79% and 81.2%; normalised viability ([29]; 3 nM): 92.2% and 97.2%; normalised viability ([30]; 10 nM): 106% and 119%
NS(=O)(=O)OC[C@@H]1C[C@@H](n2ccc3c(N[C@H]4CCc5ccccc54)ncnc32)C[C@@H]1O [Pevonedistat]	0	0	0	25.3	7.99	6.93	0	0	0	0	4.01	0.549	–
CN(C)CCN1C(=O)c2cccc3cc(N)cc(c23)C1=O [Amonafide]	0	0	0	2.42	0	11.2	0	0	2.89	0	0	0	normalised viability ([13]; 3 nM): 98.5%; normalised viability ([14]; 3 nM): 106%; normalised viability ([15]; 10 nM): 92.1%; normalised viability ([16]; 3 nM): 91.6%; normalised viability ([17]; 10 nM): 99.9%; normalised viability ([18]; 10 nM): 114%; normalised viability ([19]; 3 nM): 112%; normalised viability ([20]; 10 nM): 105%; normalised viability ([21]; 10 nM): 111%; normalised viability ([22]; 10 nM): 98.2%; normalised viability ([23]; 10 nM): 91.8%; normalised viability ([24]; 10 nM): 97.2%; normalised viability ([25]; 10 nM): 84.9%; normalised viability ([26]; 3 nM): 88.8%; normalised viability ([27]; 10 nM): 82%; normalised viability ([28]; 10 nM): 83.6%; normalised viability ([29]; 3 nM): 100%; normalised viability ([30]; 10 nM): 113%
CO[C@H]1C[C@@H]2CC[C@@H](C)[C@@](O)(O2)C(=O)C(=O)N2CCCC[C@H]2C(=O)O[C@H]([C@H](C)C[C@@H]2CC[C@@H](OCCO)[C@H](OC)C2)CC(=O)[C@H](C)/C=C(\C)[C@@H](O)[C@@H](OC)C(=O)[C@H](C)C[C@H](C)/C=C/C=C/C=C/1C [Everolimus]	0	5.95	0	0	0	0	0	8.1	0	0	0	0	normalised viability ([13]; 0.3 nM): 84.7% and 79.8%; normalised viability ([14]; 0.3 nM): 71.9% and 70%; normalised viability ([15]; 1 nM): 55.5% and 51.7%; normalised viability ([16]; 0.3 nM): 73.8% and 72%; normalised viability ([17]; 1 nM): 80.9% and 64.3%; normalised viability ([18]; 1 nM): 76.6% and 65.5%; normalised viability ([19]; 0.3 nM): 89.6% and 89.8%; normalised viability ([20]; 1 nM): 72% and 74.4%; normalised viability ([21]; 1 nM): 87.7% and 75.2%; normalised viability ([22]; 1 nM): 107% and 111%; normalised viability ([23]; 1 nM): 52.2% and 56.6%; normalised viability ([25]; 1 nM): 64.4% and 54.3%; normalised viability ([26]; 0.3 nM): 77.8% and 72.2%; normalised viability ([27]; 1 nM): 59.3% and 51.9%; normalised viability ([29]; 0.3 nM): 86.3% and 104%; normalised viability ([30]; 1 nM): 61% and 59.5%
O=C1NC(=O)[C@@H](c2cn3c4c(cccc24)CCC3)[C@@H]1c1c[nH]c2ccccc12 [Tivantinib]	0	0	5.35	2.14	0	0	3.62	0	7.13	0	0	5.63	normalised viability ([13]; 0.3 nM): 104%; normalised viability ([14]; 0.3 nM): 122%; normalised viability ([15]; 1 nM): 83.8%; normalised viability ([16]; 0.3 nM): 90.2%; normalised viability ([17]; 1 nM): 105%; normalised viability ([18]; 1 nM): 127%; normalised viability ([19]; 0.3 nM): 104%; normalised viability ([20]; 1 nM): 112%; normalised viability ([21]; 1 nM): 97.7%; normalised viability ([22]; 1 nM): 115%; normalised viability ([23]; 1 nM): 67.8%; normalised viability ([24]; 1 nM): 106%; normalised viability ([25]; 1 nM): 107%; normalised viability ([26]; 0.3 nM): 97.9%; normalised viability ([27]; 1 nM): 93.4%; normalised viability ([28]; 1 nM): 90.7%; normalised viability ([29]; 0.3 nM): 107%; normalised viability ([30]; 1 nM): 133%
